The text below walks through data of publication PMC9145706 (Molecules, 2022).

For the assay, the target named is T1, AChE enzyme from electric eel (EeAChE) (type VI) (Electrophorus electricus, UniProt O42275).
T1 construct: purchased Sigma-Aldrich, Steinheim, Germany type VI (catalogue number not given)
Nature of the assay: In vitro AChE inhibition assay (modified Ellman method). Format: biochemical. Here is the method:
AChE enzyme from electric eel (EeAChE) (type VI), acetylthiocholine iodide, Ellman reagent, 5,5-dithiobis-2-nitro benzoic acid (DTNB), and Eserine (standard inhibitor) were purchased from Sigma-Aldrich, Steinheim, Germany. AChE inhibitory activity was performed in vitro using a modified spectrophotometric method developed by Ellman et al.. Experiments were carried out in a 96-well microtiter plate using a Multiskan spectrum spectrophotometer. The test compounds were prepared immediately before the experiment as fresh samples. Each compound was dissolved in 200 μL methanol, 150 μL […] phosphate buffer (pH 8.0), and 20 μL AChE enzyme. An aliquot of 10 μL of resulting test solutions was mixed and incubated at 25 °C for 10 min. The sample with 10 μL of solvent (methanol) rather than the test compound served as a negative control. After 10 min, 10 μL DTNB was added to the wells and the reaction was initiated with the addition of 10 μL acetylthiocholine (ATCh). All of the samples were prepared and analyzed in triplicate. The hydrolysis of ATCh was monitored at wavelength 412 nm by measuring the formation of a yellow anion of 5-thio-2-nitrobenzoate due to the reaction of DTNB with thiocholine. The initial rate was measured as the change in optical density/min (OD/min). As the extinct coefficient of the yellow anion is known, the following equation was used to calculate the rate of the enzymatic reaction: (1) Rate (moles/L/min) = change in absorbance/εTNB where εTNB is the molar extinction coefficient value of 5-thio-2-nitrobenzoate = 13.6 × 10^3 at 412 nm.
The following formula was used to calculate the % enzyme inhibition by test compounds:(2) % inhibition = 1−Rate of change in the absorbance of test/Rate of change in the absorbance of cotrol × 100
Chalcone solutions were serially diluted to different concentrations (0.0977–50 µM) and were analyzed in triplicate using the above-described modified Ellman’s method. Finally, IC50 values were determined and statistically analyzed using EZ-Fit Enzyme Kinetic Program (Perrella Scientific Inc., Amherst, MA, USA).

Setting [1] is: EeAChE, Ellman method, triplicate, 25 °C, pH 8.0, read-out: IC50 (AChE inhibitory activity).

Read-outs that look alike come from different tables or passages of the source.

T1 sequence (O42275 24-633): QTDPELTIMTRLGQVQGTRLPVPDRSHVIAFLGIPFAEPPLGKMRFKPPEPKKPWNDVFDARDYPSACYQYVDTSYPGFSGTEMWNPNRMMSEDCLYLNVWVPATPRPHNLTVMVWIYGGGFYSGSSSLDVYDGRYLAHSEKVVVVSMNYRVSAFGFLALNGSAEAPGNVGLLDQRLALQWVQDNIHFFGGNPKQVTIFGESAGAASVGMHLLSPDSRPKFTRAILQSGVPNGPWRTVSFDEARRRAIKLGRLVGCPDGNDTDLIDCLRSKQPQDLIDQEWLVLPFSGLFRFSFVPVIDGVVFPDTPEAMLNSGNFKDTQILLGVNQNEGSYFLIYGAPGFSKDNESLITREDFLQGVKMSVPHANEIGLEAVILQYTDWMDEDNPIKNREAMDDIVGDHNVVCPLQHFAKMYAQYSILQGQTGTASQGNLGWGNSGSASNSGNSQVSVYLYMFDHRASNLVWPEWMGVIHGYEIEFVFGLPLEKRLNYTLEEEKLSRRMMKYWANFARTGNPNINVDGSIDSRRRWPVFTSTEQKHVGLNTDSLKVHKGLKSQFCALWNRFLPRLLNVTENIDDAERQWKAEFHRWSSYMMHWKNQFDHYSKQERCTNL

In the case of `O=C(/C=C/c1ccc([N+](=O)[O-])cc1)c1ccc(Br)cc1` [Compound C5, (E)-1-(4-bromophenyl)-3-(4-nitrophenyl)prop-2-en-1-one], the IC50 under setting [1] is 37.6 ± 0.75 µM.
For `CCc1ccc(C(=O)/C=C/c2ccc([N+](=O)[O-])cc2)cc1` [Compound C2, (E)-1-(4-ethylphenyl)-3-(4-nitrophenyl)prop-2-en-1-one], under setting [1], the half-inhibitory concentration (IC50) was found to be 31.2 ± 1.8 µM.
Same read-out and setting: the figure for `O=C(/C=C/c1ccccc1)c1ccc(Cl)cc1` [Compound C1, (E)-1-(4-chlorophenyl)-3-phenylprop-2-en-1-one] is 22 ± 2.8 µM.
`COc1ccc(/C=C/C(=O)c2ccc(Cl)cc2)cc1` [Compound C3, (E)-1-(4-chlorophenyl)-3-(4-methoxyphenyl)prop-2-en-1-one]: the IC50 is 32 ± 2.4 µM.
